14 compounds from US20220324835A1 (Nurix Therapeutics, Inc., priority 2018, published 2022) can be followed below.

Molecules are shown by their SMILES.

In assay [1] the target is Cbl-b (residues 36-427) (Homo sapiens, UniProt Q13191). Description: Cbl-b binding assay (SPR, Biacore T200). The following applies: 20° C., 1:1 binding model. An outline of the steps: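 Affinities derived from global 1:1 steady-state or kinetic fits of double-referenced, solvent-corrected SPR data, 20 °C, NeutrAvidin-capture chip. Compound series (top 100 or 50 μM, 8–10 points) injected 50 s, 90–180 s dissociation. Asterisked values used 50 mM instead of 100 mM NaCl and 30 nM Src kinase.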
Background: SPR reads the build-up and loss of mass on a sensor chip optically.

In assay [2] the test system is T-cell. Description: IL-2 secretion from T-cells stimulated with anti-CD3 antibody alone (Biological Example 2). The assay is classed as cell-based, human. The following applies: T-cell, fold change over baseline, primary human total T-cells, read-out: IL-2 secretion Anti-CD3 stimulation; for fold induction at 1 µM: 1 μM Cbl-b inhibitor; for fold induction at 8 µM: 8 μM Cbl-b inhibitor.

The test system of assay [3] is T-cell. Description: CD25 cell surface staining on T-cells stimulated with anti-CD3 antibody alone (Biological Example 2). The assay is classed as cell-based, human. The following applies: T-cell, fold change over baseline, primary human total T-cells, read-out: CD25 staining Anti-CD3 stimulation; for fold induction at 1 µM: 1 μM Cbl-b inhibitor; for fold induction at 8 µM: 8 μM Cbl-b inhibitor.

In assay [4] the target is Cbl-b (Homo sapiens, UniProt Q13191). Put plainly: Cbl-b inhibition assay (Cbl-b activity assay, FRET, Biological Example 1; 100 mM NaCl, 60 nM Src kinase). The settings on record: upper bound stated in text lists; read-out: IC50 values in the Cbl-b inhibition assay of Biological Example 1. The assay is classed as biochemical. An outline of the steps:
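Inhibition is read as loss of FRET signal. The signal arises when Src-phosphorylated, N-terminal biotinylated Avi-Cbl-b (captured by streptavidin-terbium) binds UbcH5B carrying covalently linked Bodipy-Fluorescein-tagged ubiquitin.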

Sequence of Cbl-b (Q13191 36-427): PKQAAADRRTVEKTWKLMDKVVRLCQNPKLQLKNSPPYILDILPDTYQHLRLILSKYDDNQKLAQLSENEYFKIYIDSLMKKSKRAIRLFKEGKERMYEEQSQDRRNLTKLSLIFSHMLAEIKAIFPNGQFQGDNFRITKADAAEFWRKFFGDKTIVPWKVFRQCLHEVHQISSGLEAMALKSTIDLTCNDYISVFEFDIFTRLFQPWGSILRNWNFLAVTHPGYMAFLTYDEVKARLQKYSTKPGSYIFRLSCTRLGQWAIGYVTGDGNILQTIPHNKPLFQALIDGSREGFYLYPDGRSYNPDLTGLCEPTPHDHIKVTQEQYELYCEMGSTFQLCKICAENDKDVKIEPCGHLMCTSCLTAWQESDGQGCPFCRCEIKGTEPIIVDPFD
Sequence of Cbl-b (residues 36-427) (Q13191 36-427): as above

What is called Kd is a measure of binding affinity in units of concentration. Usually IC50 stands for the concentration needed to halve the response being measured. `C[C@H](Sc1nncn1C)c1cccc(NC(=O)c2cc(C(=O)N3CC[C@H](O)C3)ccn2)c1` [Compound 140, 4-[[(3S)-3-hydroxypyrrolidin-1-yl]carbonyl]-N-[3-[(1S)-1-[(4-methyl-4H-1,2,4-triazol-3-yl)sulfanyl]ethyl]phenyl]pyridine-2-carboxamide] gave a Kd in assay [1] of 301 to 1000 nM. Moreover, the fold induction at 1 µM is less than 0.05 in assay [2] and 0.601 to 0.8 in assay [3]. Further, the fold induction at 8 µM in assay [2] was less than 0.05; in assay [3], 0.801 to 1. The IC50 in assay [4] was no more than 500 nM.
With `C[C@H](Sc1nncn1C)c1cccc(NC(=O)c2cc(C(=O)N3CC(O)C3)ccn2)c1` [Compound 148, (S)-4-(3-hydroxyazetidine-1-carbonyl)-N-(3-(1-((4-methyl-4H-1,2,4-triazol-3-yl)thio)ethyl)phenyl)picolinamide], in assay [1], the Kd is 1000 to 3000 nM. In addition, in assay [2], the fold induction at 1 µM was less than 0.05 and the fold induction at 8 µM was less than 0.05. For the same compound, in assay [3], the fold induction at 1 µM is less than 0.6 and the fold induction at 8 µM is 0.601 to 0.8. Also, the IC50 in assay [4] is no more than 500 nM.
In assay [1], `C[C@H](Sc1nncn1C)c1cccc(NC(=O)c2cc(C(=O)N3C[C@H](O)C[C@@H]3C)ccn2)c1` [Compound 151, 4-((2S,4R)-4-hydroxy-2-methylpyrrolidine-1-carbonyl)-N-(3-((S)-1-((4-methyl-4H-1,2,4-triazol-3-yl)thio)ethyl)phenyl)picolinamide] displayed a Kd of 1000 to 3000 nM. For the same compound, in assay [2], the fold induction at 1 µM is less than 0.05 and the fold induction at 8 µM is less than 0.05. In assay [3], the fold induction at 1 µM is less than 0.6 and the fold induction at 8 µM fell in the range of 0.601 to 0.8. Further, the IC50 in assay [4] is no more than 1000 nM.
As to `C[C@H](Sc1nncn1C)c1cccc(N2Cc3c(cccc3C(F)(F)F)C2=O)c1` [Compound 166a, (S)-2-(3-(1-((4-methyl-4H-1,2,4-triazol-3-yl)thio)ethyl)phenyl)-4-(trifluoromethyl)isoindolin-1-one], in assay [1], the Kd fell in the range of 301 to 1000 nM. In addition, in assay [2], the fold induction at 1 µM is less than 0.05 and the fold induction at 8 µM is less than 0.05. In assay [3], the fold induction at 1 µM was in the range of 0.601 to 0.8 and the fold induction at 8 µM lay within 0.801 to 1. The IC50 in assay [4] is no more than 500 nM.
In turn, `C[C@H](Sc1nncn1C)c1cccc(N2Cc3c(ccnc3Cl)C2=O)c1` [Compound 167, 4-chloro-2-[3-[(1S)-1-[(4-methyl-1,2,4-triazol-3-yl)sulfanyl]ethyl]phenyl]-3H-pyrrolo[3,4-c]pyridin-1-one] had a Kd in assay [1] of 301 to 1000 nM. Besides, the fold induction at 1 µM in assay [2] is less than 0.05; in assay [3], less than 0.6. The fold induction at 8 µM was in the range of 0.101 to 0.15 in assay [2] and 0.601 to 0.8 in assay [3]. For the same compound, the IC50 in assay [4] is no more than 500 nM.
Take `CC(Sc1nncn1C)c1cc(F)cc(N2Cc3c(cccc3C(F)(F)F)C2=O)c1` [Compound 168, 2-[3-fluoro-5-[(1R)-1-[(4-methyl-1,2,4-triazol-3-yl)sulfanyl]ethyl]phenyl]-4-(trifluoromethyl)isoindolin-1-one]: in assay [1], the Kd lay within 1000 to 3000 nM. Besides, the fold induction at 1 µM in assay [2] is less than 0.05; in assay [3] it was 0.801 to 1. The fold induction at 8 µM in assay [2] lay in the range of 0.051 to 0.1; in assay [3], 0.601 to 0.8. Moreover, the IC50 in assay [4] is no more than 500 nM.
Consider `C[C@H](Sc1nncn1C)c1cc(F)cc(N2Cc3c(cccc3C(F)(F)F)C2=O)c1` [Compound 168a, 2-[3-fluoro-5-[(1S)-1-[(4-methyl-1,2,4-triazol-3-yl)sulfanyl]ethyl]phenyl]-4-(trifluoromethyl)isoindolin-1-one], for which the Kd in assay [1] is 301 to 1000 nM. Besides, the fold induction at 1 µM was less than 0.05 in assay [2] and less than 0.6 in assay [3]. Moreover, the fold induction at 8 µM is less than 0.05 in assay [2] and 0.801 to 1 in assay [3]. Besides, the IC50 in assay [4] is no more than 500 nM.
In the case of `C[C@H](Sc1nncn1C)c1ccnc(N2Cc3c(cccc3C(F)(F)F)C2=O)c1` [Compound 172a, (S)-(4-(1-((4-methyl-4H-1,2,4-triazol-3-yl)thio)ethyl)pyridin-2-yl)-4-(trifluoromethyl)isoindolin-1-one], the Kd in assay [1] is 1000 to 3000 nM. In assay [2], the fold induction at 1 µM is less than 0.05 and the fold induction at 8 µM is less than 0.05. In addition, in assay [3], the fold induction at 1 µM was less than 0.6 and the fold induction at 8 µM is less than 0.6. In addition, in assay [4], the IC50 was no more than 1000 nM.
As for `C[C@H](Cc1nncn1C)c1cccc(NC(=O)c2cccc(S(C)(=O)=O)n2)c1` [Compound 185, (R)-N-(3-(1-(4-methyl-4H-1,2,4-triazol-3-yl)propan-2-yl)phenyl)-6-(methylsulfonyl)picolinamide], the Kd in assay [1] is 1000 to 3000 nM. In assay [2], the fold induction at 1 µM lay in the range of 0.051 to 0.1 and the fold induction at 8 µM lay in the range of 0.051 to 0.1. In assay [3], the fold induction at 1 µM is less than 0.6 and the fold induction at 8 µM is less than 0.6. The IC50 in assay [4] was no more than 1000 nM.
Consider `C[C@H](Cc1nncn1C)c1cccc(NC(=O)c2cc(C(C)(C)O)c(Cl)cn2)c1` [Compound 186, (R)-5-chloro-4-(2-hydroxypropan-2-yl)-N-(3-(1-(4-methyl-4H-1,2,4-triazol-3-yl)propan-2-yl)phenyl)picolinamide], for which the equilibrium dissociation constant (Kd) in assay [1] lay within 301 to 1000 nM. In assay [2], the fold induction at 1 µM lay in the range of 0.051 to 0.1 and the fold induction at 8 µM fell in the range of 0.101 to 0.15. For the same compound, in assay [3], the fold induction at 1 µM is less than 0.6 and the fold induction at 8 µM was less than 0.6. In addition, the IC50 in assay [4] is no more than 500 nM.
On to `C[C@H](Cc1nncn1C)c1cccc(NC(=O)c2ccnc(C(F)(F)F)n2)c1` [Compound 187, (R)-N-(3-(1-(4-methyl-4H-1,2,4-triazol-3-yl)propan-2-yl)phenyl)-2-(trifluoromethyl)pyrimidine-4-carboxamide], for which the Kd in assay [1] is 100 to 300 nM. In assay [2], the fold induction at 1 µM is greater than 0.201 and the fold induction at 8 µM is greater than 0.201. For the same compound, in assay [3], the fold induction at 1 µM is 0.801 to 1 and the fold induction at 8 µM was greater than 1. Besides, the IC50 in assay [4] is no more than 500 nM.
In turn, `C[C@H](Cc1nncn1C)c1cccc(NC(=O)c2cccc(C(F)(F)CO)n2)c1` [Compound 188, (R)-6-(1,1-difluoro-2-hydroxyethyl)-N-(3-(1-(4-methyl-4H-1,2,4-triazol-3-yl)propan-2-yl)phenyl)picolinamide] yielded a Kd in assay [1] of 301 to 1000 nM. Besides, the fold induction at 1 µM is less than 0.05 in assay [2] and less than 0.6 in assay [3]. Further, the figures for the fold induction at 8 µM in assay [2] and in assay [3] were 0.051 to 0.1 and less than 0.6, respectively. For the same compound, in assay [4], the IC50 was no more than 500 nM.
The compound `C[C@H](Cc1nncn1C)c1cccc(NC(=O)c2cncc(C(F)(F)F)n2)c1` [Compound 189, (R)-N-(3-(1-(4-methyl-4H-1,2,4-triazol-3-yl)propan-2-yl)phenyl)-6-(trifluoromethyl)pyrazine-2-carboxamide] showed a Kd in assay [1] of 301 to 1000 nM. For the same compound, in assay [2], the fold induction at 1 µM fell in the range of 0.051 to 0.1 and the fold induction at 8 µM was in the range of 0.051 to 0.1. Besides, in assay [3], the fold induction at 1 µM was in the range of 0.601 to 0.8 and the fold induction at 8 µM is greater than 1. Also, the IC50 in assay [4] was no more than 500 nM.
For the compound `C[C@H](Cc1nncn1C)c1cccc(NC(=O)c2cc(C3(O)COC3)cc(C(F)(F)F)n2)c1` [Compound 190, (R)-4-(3-hydroxyoxetan-3-yl)-N-(3-(1-(4-methyl-4H-1,2,4-triazol-3-yl)propan-2-yl)phenyl)-6-(trifluoromethyl)picolinamide], in assay [1], the Kd was in the range of 100 to 300 nM. Besides, in assay [2], the fold induction at 1 µM is less than 0.05 and the fold induction at 8 µM was 0.101 to 0.15. Also, in assay [3], the fold induction at 1 µM fell in the range of 0.601 to 0.8 and the fold induction at 8 µM is greater than 1. The IC50 in assay [4] is no more than 500 nM.
